US5081232A, “Complexes of TC99m radiopharmaceuticals” (priority 1987, dated 1992)

Key:
[1] = Electrophoresis (behaviour of complex under electrophoretic conditions); type: physicochemical; conditions: Tc-99 and Tc-99m
Description: A 0.1 g Agarose/10 cm^3 50 mM Phosphate buffer pH 7.4 gel was run at an applied potential of 300 VV for approximately 35 mins, using bromophenol blue indicator (this indicator moves towards the […]). The resulting distribution of activity was determined using suitable equipment.

[2] = Animal biodistribution (in vivo, i.v. injection); conditions: rats; for Blood, % injected dose/organ: blood taken as 5.8% of body weight; for Muscle, % injected dose/organ: muscle taken as 43% of body weight
Description: 0.1 ml Tc^99m prep was injected i.v. into a lateral tail vein of 6 anaesthetised rats.
At 2 minutes and 60 minutes post injection, 3 rats were sacrificed by decapitation, bled from the neck and dissected. The following organs were removed at dissection: kidney, bladder(+urine), lung, liver, spleen, stomach, small intestine, large intestine, brain (weighed), heart (weighed), thyroid, and samples of blood (weighed) and muscle (weighed, the residual carcass and the tail (injection site). Subsequently samples were counted in an automatic twin crystal gamma counter.
Percentage biodistribution of injected material was calculated (after correction for background) for all organs using the formula: [formula]
Since only samples of muscle and blood were taken, the percentage in these tissues was calculated assuming blood and muscle to represent 5.8 and 43% of total animal weight respectively using the formula: [formula] where CF= 0.058 for blood

## CC(=O)C=C(C)[O][99Tc-]([Cl])([Cl])([Cl])[N]=O [[^99 Tc(NO)Cl3 (acac)]^-, trichloro(pentan-2,4-dionato) nitrosyltechnetium(II) anion]
[1]
  Stability under electrophoretic conditions: decomposed under electrophoretic conditions
[2]; 2 min p.i.
  Brain, % injected dose/organ: 0.10 % injected dose/organ
  Heart, % injected dose/organ: 0.56 % injected dose/organ
  Heart/Blood Counts/Gram ratio: 2.2
  Heart/Liver Counts/Gram ratio: 2.30
  Heart/Lung Counts/Gram ratio: 1.12
  Heart/Muscle Counts/Gram ratio: 2.19
  Kidney + Urine, % injected dose/organ: 1.61 % injected dose/organ
  Liver + GI, % injected dose/organ: 0.00 % injected dose/organ
  Liver, % injected dose/organ: 3.12 % injected dose/organ
  Lung, % injected dose/organ: 0.73 % injected dose/organ
  Blood, % injected dose/organ: 3.56 % injected dose/organ
  Muscle, % injected dose/organ: 27.9 % injected dose/organ
[2]; 60 min p.i.
  Brain, % injected dose/organ: 0.05 % injected dose/organ
  Heart, % injected dose/organ: 0.23 % injected dose/organ
  Heart/Blood Counts/Gram ratio: 1.76
  Heart/Liver Counts/Gram ratio: 0.39
  Heart/Lung Counts/Gram ratio: 0.74
  Heart/Muscle Counts/Gram ratio: 1.84
  Kidney + Urine, % injected dose/organ: 13.55 % injected dose/organ
  Liver + GI, % injected dose/organ: 0.00 % injected dose/organ
  Liver, % injected dose/organ: 8.27 % injected dose/organ
  Lung, % injected dose/organ: 0.53 % injected dose/organ
  Blood, % injected dose/organ: 2.00 % injected dose/organ
  Muscle, % injected dose/organ: 14.37 % injected dose/organ
